Laboratory results as given in PMC7064328 (Environmental Health Perspectives, 2020).

Tested on: placenta
Experiment: Placental histopathology
Format: in vivo, mouse (CD-1)
Conditions: for Lowest dose tested resulting in adverse placental pathology: this study
Method: Dam livers, kidneys, and placentas were trimmed and embedded by the NIEHS Mouse Embryo Phenotyping Core. Tissues collected at necropsy were fixed in 4% PFA for 72 h and paraffin embedded, and 5-μm sections were prepared and stained with hematoxylin and eosin (H&E). Pathology was evaluated and a pathology review conducted by S.A.E. Diplomate American College of Veterinary Pathologists (DACVP). Pathology reviews were conducted as an informed approach analysis [e.g., nonblinded analysis; see Sills et al. ([2019])]. Select tissue slides were scanned using the AT2 Scanner (Aperio). Images were then captured for publication using the ImageScope software; version 12.3.0.5056 (Aperio). Serum and urine obtained from dams in Block 2 were analyzed using the AU480 clinical chemistry analyzer (Beckman Coulter Inc.). Reagents and calibration standards used to measure alkaline phosphatase (ALP), alanine aminotransferase (ALT), aspartate aminotransferase (AST), blood urea nitrogen (BUN), serum creatinine, urine creatinine, glucose (Glu), total protein (TP), triglyceride (Trig), high-density lipoprotein (HDL), cholesterol (Chol), and albumin (ALB) were purchased from Beckman Coulter Inc. Reagents for sorbitol dehydrogenase (SDH), total bile acid (TBA), and micro-TP were purchased from Sekisui Diagnostics. The reagent used to measure low-density lipoprotein (LDL) was purchased form Diazyme Laboratories.
Histopathological lesions of evaluated placenta were evaluated using two statistical approaches. The first approach assumed the absence of litter effects and considered each placenta evaluated within a treatment group to be a totally independent observation, regardless of its litter of origin. […] The second approach considered the litter as the biological unit and compared the relative incidence of placental lesions [e.g., percent within normal limits (WNL)] to adjust for differences in the total number of observations across litters within and between treatment groups. […] Both approaches were subjected to simultaneous tests for general linear hypotheses to correct for multiple comparisons using Tukey contrasts in the package multcomp ([Hothorn et al. 2009]).

## N.O=C(O)C(F)(OC(F)(F)C(F)(F)C(F)(F)F)C(F)(F)F (centres unmarked) [GenX, ammonium 2,3,3,3-tetrafluoro-2-(heptafluoropropoxy)propanoate]
E11.5, 2 mg/kg/d
  Early fibrin clot: No.: 1
  Labyrinth atrophy: %: 0%
  Labyrinth atrophy: No.: 0
  Labyrinth congestion: %: 0%
  Labyrinth congestion: No.: 0
  Labyrinth necrosis: %: 0%
  Labyrinth necrosis: No.: 0
  Mean WNL per litter (%): 95.6%
  Mean WNL ± SD per litter: 8.2 ± 2.8
  Mean abnormal per litter (%): 4.4%
  Mean abnormal ± SD per litter: 0.4 ± 0.9
  Other placental lesions: %: 2.3%
  Other placental lesions: No.: 1
  Placental nodule: %: 0%
  Placental nodule: No.: 0
  Placentas WNL: %: 95.3%
  Placentas WNL: No.: 41
  Placentas abnormal: %: 4.7%
  Placentas abnormal: No.: 2
E11.5, 10 mg/kg/d
  Early fibrin clot: %: 0%
  Early fibrin clot: No.: 0
  Labyrinth atrophy: %: 0%
  Labyrinth atrophy: No.: 0
  Labyrinth congestion: %: 0%
  Labyrinth congestion: No.: 0
  Labyrinth necrosis: %: 0%
  Labyrinth necrosis: No.: 0
  Mean WNL per litter (%): 97.1%
  Mean WNL ± SD per litter: 6.0 ± 3.1
  Mean abnormal per litter (%): 0%
  Mean abnormal ± SD per litter: 0 ± 0.0
  Other placental lesions: %: 0%
  Other placental lesions: No.: 0
  Placental nodule: %: 0%
  Placental nodule: No.: 0
  Placentas WNL: %: 100%
  Placentas WNL: No.: 30
  Placentas abnormal: %: 0.0%
  Placentas abnormal: No.: 0
E17.5, 2 mg/kg/d
  Early fibrin clot: %: 3.2%
  Early fibrin clot: No.: 1
  Labyrinth atrophy: %: 48.4%
  Labyrinth atrophy: No.: 15
  Labyrinth congestion: %: 3.2%
  Labyrinth congestion: No.: 1
  Labyrinth necrosis: %: 0%
  Labyrinth necrosis: No.: 0
  Mean WNL per litter (%): 51.7%
  Mean WNL ± SD per litter: 2.6 ± 2.8
  Mean abnormal per litter (%): 48.3%
  Mean abnormal ± SD per litter: 3.6 ± 3.6
  Other placental lesions: %: 0%
  Other placental lesions: No.: 0
  Placental nodule: %: 3.2%
  Placental nodule: No.: 1
  Placentas WNL: %: 41.9%
  Placentas WNL: No.: 13
  Placentas abnormal: %: 58.1%
  Placentas abnormal: No.: 18
E17.5, 10 mg/kg/d
  Early fibrin clot: %: 11.4%
  Early fibrin clot: No.: 4
  Labyrinth atrophy: %: 45.7%
  Labyrinth atrophy: No.: 16
  Labyrinth congestion: %: 22.9%
  Labyrinth congestion: No.: 8
  Labyrinth necrosis: %: 2.9%
  Labyrinth necrosis: No.: 1
  Mean WNL per litter (%): 12.0%
  Mean WNL ± SD per litter: 1.2 ± 2.7
  Mean abnormal per litter (%): 88.0%
  Mean abnormal ± SD per litter: 5.8 ± 3.0
  Other placental lesions: %: 0%
  Other placental lesions: No.: 0
  Placental nodule: %: 0%
  Placental nodule: No.: 0
  Placentas WNL: %: 17.1%
  Placentas WNL: No.: 6
  Placentas abnormal: %: 82.9%
  Placentas abnormal: No.: 29
  Lowest dose tested resulting in adverse placental pathology: 2 mg/kg/d

## O=C(O)C(F)(F)C(F)(F)C(F)(F)C(F)(F)C(F)(F)C(F)(F)C(F)(F)F [PFOA, Perfluorooctanoic acid]
E11.5, 1 mg/kg/d
  Early fibrin clot: %: 0%
  Early fibrin clot: No.: 0
  Labyrinth atrophy: %: 0%
  Labyrinth atrophy: No.: 0
  Labyrinth congestion: %: 0%
  Labyrinth congestion: No.: 0
  Labyrinth necrosis: %: 0%
  Labyrinth necrosis: No.: 0
  Mean WNL per litter (%): 98.0%
  Mean WNL ± SD per litter: 6.4 ± 1.9
  Mean abnormal per litter (%): 2.0%
  Mean abnormal ± SD per litter: 0.2 ± 0.4
  Other placental lesions: %: 3.0%
  Other placental lesions: No.: 1
  Placental nodule: %: 0%
  Placental nodule: No.: 0
  Placentas WNL: %: 97.0%
  Placentas WNL: No.: 32
  Placentas abnormal: %: 3.0%
  Placentas abnormal: No.: 4
E11.5, 5 mg/kg/d
  Early fibrin clot: %: 0%
  Early fibrin clot: No.: 0
  Labyrinth atrophy: %: 8.3%
  Labyrinth atrophy: No.: 3
  Labyrinth congestion: %: 0%
  Labyrinth congestion: No.: 0
  Labyrinth necrosis: %: 2.7%
  Labyrinth necrosis: No.: 1
  Mean WNL per litter (%): 88.3%
  Mean WNL ± SD per litter: 6.4 ± 1.7
  Mean abnormal per litter (%): 11.7%
  Mean abnormal ± SD per litter: 1.0 ± 1.4
  Other placental lesions: %: 0%
  Other placental lesions: No.: 0
  Placental nodule: %: 0%
  Placental nodule: No.: 0
  Placentas WNL: %: 88.9%
  Placentas WNL: No.: 32
  Placentas abnormal: %: 11.1%
  Placentas abnormal: No.: 4
E17.5, 1 mg/kg/d
  Early fibrin clot: %: 0%
  Early fibrin clot: No.: 0
  Labyrinth atrophy: %: 0%
  Labyrinth atrophy: No.: 0
  Labyrinth congestion: %: 0%
  Labyrinth congestion: No.: 0
  Labyrinth necrosis: %: 3.1%
  Labyrinth necrosis: No.: 1
  Mean WNL per litter (%): 91.4%
  Mean WNL ± SD per litter: 5.8 ± 1.3
  Mean abnormal per litter (%): 8.6%
  Mean abnormal ± SD per litter: 0.6 ± 0.9
  Other placental lesions: %: 0%
  Other placental lesions: No.: 0
  Placental nodule: %: 6.3%
  Placental nodule: No.: 2
  Placentas WNL: %: 90.6%
  Placentas WNL: No.: 29
  Placentas abnormal: %: 9.4%
  Placentas abnormal: No.: 3
E17.5, 5 mg/kg/d
  Early fibrin clot: %: 2.5%
  Early fibrin clot: No.: 1
  Labyrinth atrophy: %: 7.5%
  Labyrinth atrophy: No.: 3
  Labyrinth congestion: %: 57.5%
  Labyrinth congestion: No.: 23
  Labyrinth necrosis: %: 0%
  Labyrinth necrosis: No.: 0
  Mean WNL per litter (%): 38.1%
  Mean WNL ± SD per litter: 2.2 ± 2.7
  Mean abnormal per litter (%): 61.9%
  Mean abnormal ± SD per litter: 4.5 ± 3.8
  Other placental lesions: %: 0%
  Other placental lesions: No.: 0
  Placental nodule: %: 0%
  Placental nodule: No.: 0
  Placentas WNL: %: 32.5%
  Placentas WNL: No.: 13
  Placentas abnormal: %: 67.5%
  Placentas abnormal: No.: 27
  Lowest dose tested resulting in adverse placental pathology: 5 mg/kg/d
